Active and inactive are the calls of the source.
How the values were obtained:
[1] = OVCAR-3 cell viability loss – plate reader, dry powder samples, PAX8 inhibitor project, dose response (AID 743044); assay type: functional, cell-based
[2] = Luminescence Cell-Based Dose Response HTS to Identify Activators of Luciferase Translation or Activity in H4 […] Cells. [Related pubchem assays: 1829 (Project Summary), 1814 (Primary HTS)]; assay type: functional
[3] = PAX5 cellular inhibition readout – cell-based, plate reader, dry powder samples, selectivity assay for PAX8 inhibitor project, dose response (AID 743047); assay type: functional;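 note: HEK293 cells carrying a Pax5 driven CD19 promoter luciferase reporter; potency of inhibitors that lower reporter luminescence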
[4] = molecular target: T1, Replicative DNA helicase DnaB (Mycobacterium tuberculosis, UniProt P9WMR3); test: DnaB intein splicing inhibitors, dose response, biochemical, cell-free fluorescence (AID 449749); assay type: functional
T1 sequence (P9WMR3 whole entry): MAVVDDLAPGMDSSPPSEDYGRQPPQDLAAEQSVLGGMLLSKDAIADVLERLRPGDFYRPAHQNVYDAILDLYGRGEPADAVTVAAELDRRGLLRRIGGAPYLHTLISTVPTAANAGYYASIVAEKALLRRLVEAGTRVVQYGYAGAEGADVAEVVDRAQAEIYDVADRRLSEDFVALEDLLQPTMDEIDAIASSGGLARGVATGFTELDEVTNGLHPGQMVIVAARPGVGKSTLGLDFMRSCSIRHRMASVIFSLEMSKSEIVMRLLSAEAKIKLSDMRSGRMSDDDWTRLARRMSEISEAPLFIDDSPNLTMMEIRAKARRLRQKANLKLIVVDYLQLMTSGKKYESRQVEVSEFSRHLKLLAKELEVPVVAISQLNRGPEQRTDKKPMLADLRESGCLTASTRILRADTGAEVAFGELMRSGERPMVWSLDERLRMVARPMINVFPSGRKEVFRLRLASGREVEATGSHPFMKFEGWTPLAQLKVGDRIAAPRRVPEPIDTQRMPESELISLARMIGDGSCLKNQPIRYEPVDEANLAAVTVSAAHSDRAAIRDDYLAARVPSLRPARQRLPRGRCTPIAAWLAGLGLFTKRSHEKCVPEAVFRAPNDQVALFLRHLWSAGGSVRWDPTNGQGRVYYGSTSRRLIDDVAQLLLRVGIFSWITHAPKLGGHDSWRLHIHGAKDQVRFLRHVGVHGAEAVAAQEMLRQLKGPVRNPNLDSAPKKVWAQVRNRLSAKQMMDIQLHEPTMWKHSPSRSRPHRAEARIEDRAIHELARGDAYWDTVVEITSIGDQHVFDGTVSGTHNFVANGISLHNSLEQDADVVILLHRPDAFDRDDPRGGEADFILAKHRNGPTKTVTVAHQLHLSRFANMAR

Vero = test: viability of Vero cells under compound – cytotoxicity control for flavivirus capping enzyme inhibitors (AID 588742); assay type: functional; conditions: Chlorocebus sabaeus
[5] = PAX8-dependent cell viability loss – plate reader, dry powder, dose response (AID 743049); assay type: functional, cell-based
[6] = A2780 cell killing – plate reader, dry powder samples, cytotoxicity control, dose response (AID 743046); assay type: functional, cell-based
[7] = COV434 cell viability loss – plate reader, dry powder, SA7, cytotoxicity control for PAX8 inhibitor project, dose response (AID 743145); assay type: functional, cell-based
[8] = viability loss in THP-1 monocytes – THP-1 cells, cytotoxicity control for Vif-APOBEC3G degradation inhibitor project, dose response (AID 1117359); assay type: functional; conditions: THP-1
[9] = OV-90 cell viability loss – plate reader, dry powder, SA8, PAX8 inhibitor project, dose response (AID 743149); assay type: functional, cell-based
[10] = OVCAR4 cell viability loss – plate reader, dry powder, SA11, cytotoxicity control for PAX8 inhibitor project, dose response (AID 743150); assay type: functional, cell-based; conditions: OVCAR-4
[11] = COV362 cell viability loss – plate reader, dry powder, SA12, cytotoxicity control for PAX8 inhibitor project, dose response (AID 743144); assay type: functional, cell-based
[12] = inhibitors acting on PAX2 in cells – cell-based, plate reader, dry powder samples, selectivity assay for PAX8 inhibitor project, dose response (AID 743048); assay type: functional;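 note: HEK293 cells carrying a WT1 promoter luciferase reporter driven by expressed Pax2; potency is for inhibition of Pax2 driven reporter signal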
Protein RecA = molecular target: T2, Protein RecA (Mycobacterium tuberculosis, UniProt P9WHJ3); test: Fluorescence Cell-Free Homogeneous Dose Retest to Identify Inhibitors of RecA-Intein Splicing Activity. [Related pubchem assays (depositor defined):AID2097, AID2223, AID489010, AID492950]; assay type: functional
T2 sequence (P9WHJ3 whole entry): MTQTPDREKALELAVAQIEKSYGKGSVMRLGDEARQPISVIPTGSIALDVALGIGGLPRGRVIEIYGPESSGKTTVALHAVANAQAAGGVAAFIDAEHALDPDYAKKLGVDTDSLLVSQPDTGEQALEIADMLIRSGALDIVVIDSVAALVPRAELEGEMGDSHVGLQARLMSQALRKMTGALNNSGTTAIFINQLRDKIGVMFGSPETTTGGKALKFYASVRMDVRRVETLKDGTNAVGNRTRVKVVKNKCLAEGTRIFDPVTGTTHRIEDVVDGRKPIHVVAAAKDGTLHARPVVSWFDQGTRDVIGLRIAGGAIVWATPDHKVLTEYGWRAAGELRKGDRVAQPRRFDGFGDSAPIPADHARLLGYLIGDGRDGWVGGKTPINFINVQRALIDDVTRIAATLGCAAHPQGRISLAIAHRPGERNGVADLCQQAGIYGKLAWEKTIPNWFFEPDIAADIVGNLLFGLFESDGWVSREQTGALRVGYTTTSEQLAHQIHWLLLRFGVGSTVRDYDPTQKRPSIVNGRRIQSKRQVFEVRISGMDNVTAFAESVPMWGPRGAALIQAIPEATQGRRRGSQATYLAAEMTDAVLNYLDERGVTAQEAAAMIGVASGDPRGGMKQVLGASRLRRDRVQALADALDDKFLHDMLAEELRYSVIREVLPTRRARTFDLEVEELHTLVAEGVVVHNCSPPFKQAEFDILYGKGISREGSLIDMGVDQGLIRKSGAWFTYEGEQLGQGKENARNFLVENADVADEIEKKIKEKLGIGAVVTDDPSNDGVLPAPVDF

Genome polyprotein = Genome polyprotein (dengue virus type 2, UniProt P29990); test: flavivirus cap methylation enzyme inhibition – biochemical, confirmation dose response, primary screen (AID 588689); assay type: functional
[13] = molecular target: T3, Long-chain-fatty-acid--AMP ligase FadD28 (Mycobacterium tuberculosis, UniProt P9WQ59); test: Fluorescence polarization aasay to screen for inhibitors that compete for the binding of FadD28 to a bisubstrate Measured in Biochemical System Using Plate Reader - 2147-01_Inhibitor_Dose_CherryPick_Activity.; assay type: functional, Mycobacterium tuberculosis H37Rv
T3 sequence (P9WQ59 whole entry): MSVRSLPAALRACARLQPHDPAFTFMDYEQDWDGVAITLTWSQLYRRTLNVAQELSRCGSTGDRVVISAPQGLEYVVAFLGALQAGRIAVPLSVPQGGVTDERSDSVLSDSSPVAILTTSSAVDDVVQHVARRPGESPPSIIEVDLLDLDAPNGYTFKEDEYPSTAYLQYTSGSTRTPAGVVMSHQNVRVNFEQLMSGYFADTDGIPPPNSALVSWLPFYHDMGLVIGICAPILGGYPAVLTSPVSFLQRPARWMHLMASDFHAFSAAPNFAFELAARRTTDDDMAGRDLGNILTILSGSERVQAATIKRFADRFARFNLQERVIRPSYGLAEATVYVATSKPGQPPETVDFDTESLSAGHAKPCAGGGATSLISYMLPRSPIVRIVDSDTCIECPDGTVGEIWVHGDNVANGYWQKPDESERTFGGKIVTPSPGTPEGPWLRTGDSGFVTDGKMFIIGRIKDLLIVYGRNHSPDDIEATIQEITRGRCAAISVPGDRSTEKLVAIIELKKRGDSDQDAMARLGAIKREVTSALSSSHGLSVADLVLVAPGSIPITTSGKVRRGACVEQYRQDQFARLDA

Paired box protein Pax-8 = Paired box protein Pax-8 (Homo sapiens, UniProt Q06710); test: PAX8 transcriptional activity inhibition in RMG-I – RMG-I cells, luciferase, cherry-pick, dose response (AID 687027); assay type: functional, cell-based;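 note: luciferase reporter driven by Pax8 target thyroperoxidase promoter measured by SteadyGlo luminescence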
[14] = toxicity toward immortalized ovarian surface epithelium – cell-based, plate reader, dry powder samples, cytotoxicity control for PAX8 inhibitor project, dose response (AID 743045); assay type: functional
H4 = test: Luminescence Cell-Based Dose Response HTS to Identify Activators of 5'UTR Stem-Loop Driven Prion Protein mRNA Translation in H4 Neuroglioblastoma Cells. [Related pubchem assays: 1829 (Project Summary), 1814 (Primary HTS)]; assay type: functional; conditions: Homo sapiens
[15] = IGROV1 cell killing – plate reader, dry powder samples, PAX8 inhibitor project, dose response (AID 743043); assay type: functional, cell-based; conditions: IGROV-1

Chain of Genome polyprotein (P29990 2492-3391 limits assumed): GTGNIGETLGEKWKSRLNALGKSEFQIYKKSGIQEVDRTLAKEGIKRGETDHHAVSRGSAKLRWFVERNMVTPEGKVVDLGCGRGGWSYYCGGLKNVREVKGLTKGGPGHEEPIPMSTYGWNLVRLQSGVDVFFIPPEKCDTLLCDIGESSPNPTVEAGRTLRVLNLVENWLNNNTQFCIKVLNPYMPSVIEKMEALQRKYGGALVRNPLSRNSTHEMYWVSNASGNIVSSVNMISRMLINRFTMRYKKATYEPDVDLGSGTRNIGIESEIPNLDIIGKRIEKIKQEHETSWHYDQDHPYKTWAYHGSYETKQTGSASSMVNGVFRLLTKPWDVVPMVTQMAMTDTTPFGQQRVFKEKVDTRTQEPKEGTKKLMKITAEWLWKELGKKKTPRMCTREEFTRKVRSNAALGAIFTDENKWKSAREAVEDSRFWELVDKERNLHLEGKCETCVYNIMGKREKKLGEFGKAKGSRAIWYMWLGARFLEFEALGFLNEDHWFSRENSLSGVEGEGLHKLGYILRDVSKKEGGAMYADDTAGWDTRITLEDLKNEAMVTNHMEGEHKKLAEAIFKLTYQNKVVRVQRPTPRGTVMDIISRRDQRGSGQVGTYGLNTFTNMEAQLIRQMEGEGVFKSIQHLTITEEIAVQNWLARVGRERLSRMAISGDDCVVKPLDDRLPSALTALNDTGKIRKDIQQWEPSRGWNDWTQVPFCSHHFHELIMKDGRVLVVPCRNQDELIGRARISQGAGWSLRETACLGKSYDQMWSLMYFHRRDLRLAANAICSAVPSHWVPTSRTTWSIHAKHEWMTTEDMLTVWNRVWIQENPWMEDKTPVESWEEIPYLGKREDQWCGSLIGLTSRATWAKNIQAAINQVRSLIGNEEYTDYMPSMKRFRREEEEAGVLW
Chain of Paired box protein Pax-8 (Q06710 whole entry): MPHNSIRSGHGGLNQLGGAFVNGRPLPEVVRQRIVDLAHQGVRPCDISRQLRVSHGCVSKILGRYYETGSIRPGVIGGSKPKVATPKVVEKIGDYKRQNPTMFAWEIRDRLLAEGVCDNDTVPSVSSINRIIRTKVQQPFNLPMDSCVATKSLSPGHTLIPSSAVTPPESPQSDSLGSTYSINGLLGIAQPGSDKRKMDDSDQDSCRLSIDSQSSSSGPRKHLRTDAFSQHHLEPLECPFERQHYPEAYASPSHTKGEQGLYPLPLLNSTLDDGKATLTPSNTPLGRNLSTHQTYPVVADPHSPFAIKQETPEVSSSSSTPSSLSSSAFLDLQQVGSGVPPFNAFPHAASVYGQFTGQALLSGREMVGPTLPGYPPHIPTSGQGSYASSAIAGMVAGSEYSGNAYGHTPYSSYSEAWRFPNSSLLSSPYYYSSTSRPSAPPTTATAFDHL

For `O=C(O)CCCN1C(=O)/C(=C\C(Cl)=C\c2ccccc2)SC1=S`, the AC50 [1] was 10.2 µM (active), the EC50 [2] was > 120 µM (not active) and the AC50 [3] was 13.2 µM (active). For the same compound, the AC50 [4] was 9.77 µM (active), the CC50 (Vero) was 3.6 µM (active) and the AC50 [5] was 16 µM (active). The AC50 [6] was 66.9 µM (active), the AC50 [7] was 27.9 µM (active) and the CC50 [8] was 6.87 µM (active). The AC50 [9] was 18.4 µM (active), the AC50 [10] was 31.8 µM (active) and the AC50 [11] was 16 µM (active). For the same compound, the AC50 [12] was 17.8 µM (active), the EC50 (Protein RecA) was 16.3 µM (active) and the IC50 (Genome polyprotein) was 36.2 µM (active). The AC50 [13] was 29.7 µM (active), the AC50 (Paired box protein Pax-8) was 2.03 µM (active) and the AC50 [14] was 22.9 µM (active). The EC50 (H4) was > 120 µM (not active) and the AC50 [15] was 9.43 µM (active).

From ChEMBL document CHEMBL1201862, “PubChem BioAssay data set” (2004)
